Results: publication PMC12030497, “Plasma Protein Binding, Biostability, Metabolite Profiling, and CYP450 Phenotype of TPB15 Across Different Species: A Novel Smoothened Inhibitor for TNBC Therapy” (Pharmaceutics, 2025)

Tests used:
[1] = Plasma protein binding by ultrafiltration, rat plasma; type: in vitro ADME, SD rat
Description: (§1) To prepare plasma samples of TPB15 at final concentrations of 4, 8, and 16 μg/mL, 1 μL of TPB15 dissolved in dimethyl sulfoxide (DMSO) at low (400 μg/mL), medium (800 μg/mL), and high (1600 μg/mL) concentrations was added to 99 μL of blank plasma obtained from humans, rats, mice, monkeys, and dogs. Each concentration was prepared in six replicates. The samples were then divided into two groups: one for determining the pre-ultrafiltration concentration (Cpre) and the other for measuring the post-ultrafiltration concentration (Ct), following the evaluation of the non-specific binding coefficient (NSB) of TPB15 to the ultrafiltration tubes. For Cpre determination, 10 μL of the sample was mixed with 990 μL of plasma, vortexed thoroughly, and analyzed for drug concentration using the previously reported liquid chromatography–tandem mass spectrometry (LC-MS/MS) method. For Ct determination, the samples were first incubated in a water bath at 37 °C for 3 h. After incubation, they were transferred to ultrafiltration tubes and centrifuged at 14,000 rpm for 20 min at 4 °C using a centrifuge (Sigma 3K-15) from Sigma Laborzentrifugen GmbH (Osterode am Harz, Germany). After centrifugation, 10 μL of the ultrafiltrate was mixed with 990 μL of plasma, vortexed, and analyzed for concentration using the same LC-MS/MS method. The formula for calculating the plasma protein binding rate (PPB) is as follows: PPB (%) = [1 − Ct/(1 − NSB)/Cpre] × 100%. (NSB: non-specific binding coefficient. […]).

[2] = Plasma protein binding by ultrafiltration, monkey plasma; type: in vitro ADME, cynomolgus monkey
Description: as §1

[3] = Stability in dog plasma; type: in vitro ADME, beagle dog; details: 37 °C, 453 μg/L
Description: A total of 696.5 μL of plasma from each species (healthy mice, rat, dog, monkey, and human) were spiked with 3.5 μL of TPB15 stock solution ([…] in DMSO), resulting in a final TPB15 concentration of 453 μg/L in plasma. The mixture was then aliquoted into three tubes, each with a volume of 200 μL, maintaining a final DMSO concentration of 0.5%. After incubation in a water bath at 37 °C for 0, 30, 60, 90, and 120 min, 100 µL samples were transferred into EP tubes. Subsequently, 10 µL of internal standard working solution were added, followed by vortex mixing. Then, 500 µL of ethyl acetate were added, and the mixture was vortexed again before being centrifuged at 14,800 rpm at 4 °C for 10 min. A total of 400 µL of the supernatant were transferred into a new EP tube and placed in a vacuum concentrator (Bionoon-VAC2) (Bionoon Biotech, Shanghai, China) to dry for 1 h. The dried residue was reconstituted with 100 µL of mobile phase, vortex mixed thoroughly, and centrifuged again at 14,800 rpm at 4 °C for 10 min. A volume of 5 µL of the supernatant was then taken for LC-MS/MS analysis to determine the drug concentration. Additionally, a blank control group was established, in which PBS buffer was used in place of blank plasma in the incubation system.

[4] = Metabolite identification in human liver microsomes; type: in vitro ADME; details: metabolite +16 Da, seen at 45 and 90 min, not at 0 min
Description: A total of 450 μL of human liver microsomes were spiked with 0.5 μL of the substrate TPB15 and incubated in a water bath at 37 °C for 10 min. The reaction was initiated by adding 50 μL of NADPH. Following incubation, 50 μL of the reaction mixture were transferred to 150 μL of ice-cold methanol to terminate the reaction. The mixture was then centrifuged at 14,800 rpm at 4 °C for 10 min. A volume of 5 μL of the supernatant was collected for analysis using a QTRAP 4000 mass spectrometer(AB Sciex, Framingham, MA, USA), with three parallel samples prepared for each time point. The primary mass spectrometry conditions were as follows: curtain gas at 30 psi, sprayer gas (GS1) at 50 psi, drier gas (GS2) at 50 psi, ion source temperature at 550 °C, and cluster-removal voltage at 100 V. The ion source (IS) spray voltage was set to 5500 V, with a focusing potential (FP) of 200 V, an entrance potential (EP) of 10 V, an exit potential (CXP) of 15 V, and a collision energy of 86 V for TPB15. Chromatographic separation was performed using an Agilent ZORBAX Stable Bond C18 column (50 mm × 2.1 mm i.d., 3.5 μm particle size) at a column temperature of 35 °C. The injection volume was 5 μL, and the elution was carried out in gradient mode. The mobile phase consisted of two components: mobile phase A (an aqueous solution with 0.1% formic acid) and mobile phase B (methanol). […]

With O=C(Nc1ccc(Cl)c(-c2nnc3c(Cl)cccn23)c1)c1ccc(Cl)nc1Cl [TPB15] the fraction unbound at 3 h ([1]; SD, rat plasma, 4 to 16 μg/mL, read-out: average plasma protein binding rates, range over concentrations) was 0.176 to 0.191, the fraction unbound at 3 h, 4 μg/mL ([1]; Sprague-Dawley, rat, plasma, 4 μg/mL TPB15, ultrafiltration, 37 °C 3 h, read-out: Plasma Protein Binding (%) SD Rat (converted)) was 0.183 and the fraction unbound at 3 h, 8 μg/mL ([1]; Sprague-Dawley, rat, plasma, 8 μg/mL TPB15, ultrafiltration, 37 °C 3 h, read-out: Plasma Protein Binding (%) SD Rat (converted)) was 0.191. The fraction unbound at 3 h, 16 μg/mL ([1]; Sprague-Dawley, rat, plasma, 16 μg/mL TPB15, ultrafiltration, 37 °C 3 h, read-out: Plasma Protein Binding (%) SD Rat (converted)) was 0.176, the fraction unbound at 3 h, 4 μg/mL ([2]; cynomolgus monkey, plasma, 4 μg/mL TPB15, ultrafiltration, 37 °C 3 h) was 0.185 and the fraction unbound at 3 h, 8 μg/mL ([2]; cynomolgus monkey, plasma, 8 μg/mL TPB15, ultrafiltration, 37 °C 3 h) was 0.188. The fraction unbound at 3 h, 16 μg/mL ([2]; cynomolgus monkey, plasma, 16 μg/mL TPB15, ultrafiltration, 37 °C 3 h) was 0.178, the fraction unbound at 3 h ([2]; monkey plasma, 4 to 16 μg/mL, read-out: average plasma protein binding rates, range over concentrations) was 0.178 to 0.188 and the “Remaining proportion of substrate TPB15 (%) Beagle dog” value (“Remaining proportion … (%) Beagle dog” below) ([3]; incubation 0 min) was 100.0 ± 1.1%. The “Remaining proportion … (%) Beagle dog” value ([3]; incubation 30 min) was 99.3 ± 0.7%, the “Remaining proportion … (%) Beagle dog” value ([3]; incubation 60 min) was 98.9 ± 0.4% and the “Remaining proportion … (%) Beagle dog” value ([3]; incubation 90 min) was 97.1 ± 1.4%. The “Remaining proportion … (%) Beagle dog” value ([3]; incubation 120 min) was 98.0 ± 0.8% and the “metabolic reaction of TPB15 in human liver microsomes” value [4] was “oxidation”.
